The target in this experiment is T1, recombinant human liver glycogen phosphorylase (Homo sapiens, UniProt P06737).
T1 construct: made in house; host or cells: Sf9 insect cells (crude homogenate, diluted, used as the enzyme solution)
T1 sequence (P06737 1-847): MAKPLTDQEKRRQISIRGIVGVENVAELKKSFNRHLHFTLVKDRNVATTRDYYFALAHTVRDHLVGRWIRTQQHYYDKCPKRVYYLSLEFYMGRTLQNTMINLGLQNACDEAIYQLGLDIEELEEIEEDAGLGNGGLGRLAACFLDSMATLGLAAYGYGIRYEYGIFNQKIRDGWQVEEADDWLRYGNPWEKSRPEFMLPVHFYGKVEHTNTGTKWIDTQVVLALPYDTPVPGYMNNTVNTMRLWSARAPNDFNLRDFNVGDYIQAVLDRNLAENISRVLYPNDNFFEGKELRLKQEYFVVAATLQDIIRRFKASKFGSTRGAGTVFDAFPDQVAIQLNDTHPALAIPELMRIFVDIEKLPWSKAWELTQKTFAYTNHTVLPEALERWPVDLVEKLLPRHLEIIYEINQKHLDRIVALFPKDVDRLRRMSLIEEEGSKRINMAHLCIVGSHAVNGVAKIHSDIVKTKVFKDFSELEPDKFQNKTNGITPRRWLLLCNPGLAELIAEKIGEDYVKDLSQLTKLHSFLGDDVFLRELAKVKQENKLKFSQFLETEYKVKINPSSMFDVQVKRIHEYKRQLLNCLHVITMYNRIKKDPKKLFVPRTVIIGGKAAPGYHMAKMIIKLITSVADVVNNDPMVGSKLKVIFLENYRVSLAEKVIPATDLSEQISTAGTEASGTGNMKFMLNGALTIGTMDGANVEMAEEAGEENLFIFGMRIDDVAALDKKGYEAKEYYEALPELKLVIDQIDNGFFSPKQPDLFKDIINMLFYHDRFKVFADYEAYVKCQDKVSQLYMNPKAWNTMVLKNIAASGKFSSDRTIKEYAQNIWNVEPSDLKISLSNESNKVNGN
Put plainly: Measuring liver glycogen phosphorylase activity (forward reaction system, NADPH absorbance at 340 nm). The format is biochemical. The conditions noted are these: for inhibition at 0.3 µM: compound concentration 300 nmol (in parentheses); for inhibition at 1 µM: compound concentration 1000 nmol (in parentheses). The gist of the method: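 Sf9 homogenate expressing the enzyme, in pH 6.8 BES/EDTA, with glycogen and phosphate substrate plus glucose, coupled via phosphoglucomutase/G6PDH to NADPH formation. A340 change over 75 min at room temperature, blank-corrected; IC50 linearly interpolated between the two concentrations bracketing 50% inhibition versus 1% DMSO control.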

The mark [1] stands for this setting: enzyme inhibitory activity with respect to liver glycogen phosphorylase, class symbols.
Where [2] appears, read: human liver glycogen phosphorylase, class symbol.
Where [3] appears, read: compound concentration 100 nmol (in parentheses), read-out: inhibition rate (%) at a certain concentration.
The mark [4] stands for this setting: figure in brackets (100), read-out: IC50: % value given with (100).
[5] abbreviates: read-out: inhibition rate (%) at a certain concentration.
The mark [6] stands for this setting: compound concentration 100 nmol (in parentheses).

Each structure is given as a SMILES string. Read-outs that look alike come from different tables or passages of the source. Where only a bound is given, the exact number is not on record here.

55 molecules from patent publication US20070032529A1, “Pyrazole compounds and their use as antidiabetes agents” (Japan Tobacco Inc., priority 2005, published 2007) can be followed below.

What is called IC50 is the concentration needed to halve the response being measured. As to `CC(=O)Nc1ccc(CNC(=O)c2cc(NC(=O)c3cc(F)c(F)cc3Cl)[nH]n2)cc1` [Example 2-18], the IC50 under setting [1] is less than 100 nM. For the molecule `O=C(NCc1cc(Br)c(Br)s1)c1cc(NC(=O)c2cc(F)c(F)cc2Cl)[nH]n1` [Example 1-155], the IC50 under setting [1] is less than 100 nM. Take `Cc1ccc(S(=O)(=O)Nc2ccccc2CNC(=O)c2cc(NC(=O)c3cc(F)c(F)cc3Cl)[nH]n2)cc1` [Example 6-38]: the IC50 under setting [2] is less than 100 nM. Same read-out and setting: as for `CC(=N)Nc1ccccc1CNC(=O)c1cc(NC(=O)c2cc(F)c(F)cc2Cl)[nH]n1` [Example 6-30], the figure is less than 100 nM. `CCCCN(C(=O)c1cc(NC(=O)c2cc(F)c(F)cc2Cl)[nH]n1)c1ccc(CC(=O)OCC)cc1` [Example 4-45]: the inhibition at 0.1 µM under setting [3] amounted to 5.9%. On to `CCOC(=O)c1csc(N(CC)C(=O)c2cc(NC(=O)c3cc(F)c(F)cc3Cl)[nH]n2)n1` [Example 6-18], for which, under setting [4], the inhibition at 0.1 µM amounted to 6.8%. Turning to `CCCN(C(=O)c1cc(NC(=O)c2cc(F)c(F)cc2Cl)[nH]n1)C1CCN(C(=O)CC(=O)O)CC1` [Example 1-124], the IC50 under setting [1] is less than 100 nM. Regarding `Cc1nc(CNC(=O)c2cc(NC(=O)c3cc(F)c(F)cc3Cl)[nH]n2)cs1` [Example 1-45], under setting [1], the IC50 was less than 100 nM.

`O=C(NCc1ccccc1)c1cc(NC(=O)c2ccc(F)cc2Cl)[nH]n1` [Example 4-6]: under setting [1], the IC50 was in the range of 100 to 300 nM. As for `CS(=O)(=O)Nc1cc(F)c(F)cc1C(=O)Nc1cc(C(=O)NCc2cccnc2)n[nH]1` [Example 7-12], the inhibition at 0.1 µM under setting [4] amounted to 8%. `CCCCCCc1nc(C)oc1CNC(=O)c1cc(NC(=O)c2cc(F)c(F)cc2Cl)[nH]n1` [Example 1-167]: under setting [1], the IC50 was less than 100 nM.

With `CCCN(C(=O)c1cc(NC(=O)c2cc(F)c(F)cc2Cl)[nH]n1)C1CCN(C(=O)CCC(=O)O)CC1` [Example 1-125], under setting [1], the concentration for half-maximal inhibition (IC50) is less than 100 nM. Consider `CN(C)CCNC(=O)c1cc(NC(=O)c2cc(F)c(F)cc2Cl)[nH]n1` [Example 3-42], for which the inhibition at 0.3 µM under setting [5] was determined as 1.1%.

As for `CC(C)(C)OC(=O)NCc1ccnc(CNC(=O)c2cc(NC(=O)c3cc(F)c(F)cc3Cl)[nH]n2)c1` [Example 1-62], under setting [1], the IC50 was less than 100 nM. As to `CCOC(=O)CCN(Cc1ccccc1)C(=O)c1cc(NC(=O)c2cc(F)c(F)cc2Cl)[nH]n1` [Example 1-132], under setting [1], the IC50 is less than 100 nM. For `O=C(N[C@@H]1c2ccccc2C[C@@H]1O)c1cc(NC(=O)c2cc(F)c(F)cc2Cl)[nH]n1` [Example 2-30], the inhibition at 0.1 µM under setting [3] is 1.8%. As for `O=C(NCc1ccccc1Cl)c1cc(NC(=O)c2cc(F)c(F)cc2Cl)[nH]n1` [Example 3-36], the IC50 under setting [1] was less than 100 nM. As for `CC(=Nc1cccc(CNC(=O)c2cc(NC(=O)c3cc(F)c(F)cc3Cl)[nH]n2)c1)N(C)C` [Example 6-25], under setting [2], the IC50 was less than 100 nM. As to `O=C(Nc1cnccn1)c1cc(NC(=O)c2cc(F)c(F)cc2Cl)[nH]n1` [Example 1-144], the inhibition at 0.1 µM under setting [3] was determined as 5%.

For the molecule `CCc1nc(C)oc1CNC(=O)c1cc(NC(=O)c2cc(F)c(F)cc2Cl)[nH]n1` [Example 1-157], under setting [1], the IC50 was less than 100 nM. In the case of `CC(=O)Nc1cccc(CNC(=O)c2cc(NC(=O)c3cc(F)c(F)cc3Cl)[nH]n2)c1` [Example 2-17], under setting [1], the IC50 is less than 100 nM. With `CN(C)c1cccc(CNC(=O)c2cc(NC(=O)c3cc(F)c(F)cc3Cl)[nH]n2)c1` [Example 3-34], under setting [1], the IC50 was less than 100 nM. Consider `O=C(NCc1cnccn1)c1cc(NC(=O)c2cc(F)c(F)cc2Cl)[nH]n1` [Example 1-152], for which the half-inhibitory concentration (IC50) under setting [1] is less than 100 nM. Turning to `COCCN(C(=O)c1cc(NC(=O)c2cc(F)c(F)cc2Cl)[nH]n1)C1CCOCC1` [Example 1-97], under setting [1], the IC50 is less than 100 nM. In the case of `COc1cccc(CNC(=O)c2cc(NC(=O)c3cc(F)c(F)cc3Cl)[nH]n2)c1OC` [Example 1-13], the IC50 under setting [1] was less than 100 nM. As for `O=C(O)CCCN(C(=O)c1cc(NC(=O)c2cc(F)c(F)cc2Cl)[nH]n1)c1ccccc1` [Example 4-28], the IC50 under setting [1] was 100 to 300 nM. For the molecule `CCCCCCc1nc(C)c(CNC(=O)c2cc(NC(=O)c3cc(F)c(F)cc3Cl)[nH]n2)o1` [Example 1-163], the IC50 under setting [1] is less than 100 nM.

For `CC(=O)OCCN(CCO)CCNC(=O)c1ccc(CNC(=O)c2cc(NC(=O)c3cc(F)c(F)cc3Cl)[nH]n2)cc1` [Example 1-49], the IC50 under setting [1] was less than 100 nM. Turning to `CN(C)CCNC(=O)c1ccc(CNC(=O)c2cc(NC(=O)c3cc(F)c(F)cc3Cl)[nH]n2)cc1` [Example 1-33], the IC50 under setting [1] was less than 100 nM. Turning to `O=C(NCc1cccc(F)c1)c1cc(NC(=O)c2cc(F)c(F)cc2Cl)[nH]n1` [Example 1-9], the IC50 under setting [1] is less than 100 nM. Consider `CCN(C=Nc1cccc(CNC(=O)c2cc(NC(=O)c3cc(F)c(F)cc3Cl)[nH]n2)c1)CC` [Example 6-28], for which the 50% inhibitory concentration (IC50) under setting [2] was less than 100 nM. `CCOC(=O)C(C)(C)c1cnc(NC(=O)c2cc(NC(=O)c3cc(F)c(F)cc3Cl)[nH]n2)c(OCC)c1` [Example 1-149]: the “inhibition rate (%) at a certain concentration” value under setting [6] is 20.8%(100). In the case of `O=C(NCc1cccc(-c2ccccc2)c1)c1cc(NC(=O)c2cc(F)c(F)cc2Cl)[nH]n1` [Example 2-29], the inhibition at 0.1 µM under setting [3] came out at 45.8%. Regarding `COC(=O)[C@H](NC(=O)c1cc(NC(=O)c2cc(F)c(F)cc2Cl)[nH]n1)c1ccccc1` [Example 3-14], the inhibition at 1 µM under setting [5] was found to be 41.7%. On to `O=C(NCc1csc(N2CCOCC2)n1)c1cc(NC(=O)c2cc(F)c(F)cc2Cl)[nH]n1` [Example 1-54], for which the IC50 under setting [1] is less than 100 nM.

With `O=C(Nc1cc(C(=O)N2C=Nc3cc(F)ccc3C2)n[nH]1)c1cc(F)c(F)cc1Cl` [Example 6-45], under setting [2], the IC50 is less than 100 nM. With `COc1ccc(CNC(=O)c2cc(NC(=O)c3cc(F)c(F)cc3Cl)[nH]n2)cc1OC` [Example 1-17], under setting [1], the IC50 is less than 100 nM. With `CN(C(=O)c1cc(NC(=O)c2cc(F)c(F)cc2Cl)[nH]n1)c1ccc(C(=N)NO)cc1` [Example 6-11], the inhibition at 0.1 µM under setting [4] worked out at 2.1%. As to `CC(=Nc1ccccc1CNC(=O)c1cc(NC(=O)c2cc(F)c(F)cc2Cl)[nH]n1)N(C)C` [Example 6-24], under setting [2], the IC50 is less than 100 nM.

In the case of `O=C(NCc1cc(Cl)c(Cl)s1)c1cc(NC(=O)c2cc(F)c(F)cc2Cl)[nH]n1` [Example 1-161], the IC50 under setting [1] is less than 100 nM. With `O=C(Nc1ccccc1)c1cc(NC(=O)c2cc(F)c(F)cc2Cl)[nH]n1` [Example 3-3], the inhibition at 0.64 µM (compound concentration 640 nmol (in parentheses), read-out: inhibition rate (%) at a certain concentration) was determined as 50%. Turning to `Cc1ccc(C(=O)Nc2cc(C(=O)NCc3ccccc3)n[nH]2)c(Cl)n1` [Example 4-43], the inhibition at 0.3 µM under setting [5] was 3.8%.

With `CCCCN(C(=O)c1cc(NC(=O)c2cc(F)c(F)cc2Cl)[nH]n1)C1CCS(=O)(=O)CC1` [Example 1-114], the inhibition at 0.3 µM under setting [5] was 38.9%.

For `COc1ccc(CNC(=O)c2cc(NC(=O)c3ccc(Cl)cc3Cl)[nH]n2)cn1` [Example 3-50], the 50% inhibitory concentration (IC50) under setting [1] was less than 100 nM. `CC(=O)Nc1cc(F)c(F)cc1C(=O)Nc1cc(C(=O)NCc2cccnc2)n[nH]1` [Example 7-13]: the inhibition at 0.1 µM under setting [4] is 1.9%.

On to `NC(=O)CNC(=O)c1cc(NC(=O)c2cc(F)c(F)cc2Cl)[nH]n1` [Example 6-1], for which the inhibition at 0.1 µM under setting [4] came out at 15.5%. For `O=C(NCC1CCCCC1)c1cc(NC(=O)c2cc(F)c(F)cc2Cl)[nH]n1` [Example 1-76], under setting [1], the IC50 is less than 100 nM. Consider `COCCN(C(=O)c1cc(NC(=O)c2cc(F)c(F)cc2Cl)[nH]n1)c1ccc(C(=O)OC)cc1` [Example 4-47], for which, under setting [3], the inhibition at 0.1 µM was determined as 1.2%. On to `CC(C)(NC(=O)c1cc(NC(=O)c2cc(F)c(F)cc2Cl)[nH]n1)c1ccccc1` [Example 4-10], for which, for the setting “compound concentration 590 nmol (in parentheses), read-out: inhibition rate (%) at a certain concentration”, the inhibition at 0.59 µM was 50%. Regarding `COc1cc(CNC(=O)c2cc(NC(=O)c3cc(F)c(F)cc3Cl)[nH]n2)cc(OC)c1` [Example 1-16], under setting [1], the IC50 was less than 100 nM. In the case of `COC(=O)CCNC(=O)c1ccc(CNC(=O)c2cc(NC(=O)c3cc(F)c(F)cc3Cl)[nH]n2)cc1` [Example 1-44], under setting [1], the IC50 was less than 100 nM.

As to `O=C(NCc1nccs1)c1cc(NC(=O)c2cc(F)c(F)cc2Cl)[nH]n1` [Example 1-51], under setting [1], the IC50 is less than 100 nM.

Consider `O=C(Nc1cc(C(=O)N2CCC(C(=O)O)CC2)n[nH]1)c1cc(F)c(F)cc1Cl` [Example 3-8], for which the inhibition at 1 µM under setting [5] was determined as 11.7%.

For `O=C(Nc1cccc2cccnc12)c1cc(NC(=O)c2cc(F)c(F)cc2Cl)[nH]n1` [Example 5-37], the “inhibition rate (%) at a certain concentration” value under setting [6] is listed as 22.3% (100). `O=C(Nc1cc(C(=O)N2CCCCC2)n[nH]1)c1cc(F)c(F)cc1Cl` [Example 3-5]: the inhibition at 1 µM under setting [5] was 41.1%.
